This is an account of results in US6723710B2, “Compositions for inhibiting arginase activity” (The Trustees of the University of Pennsylvania, priority 1997, dated 2004).

The target in test [1] is liver arginase activity. Put plainly: arginase activity in liver homogenate. It counts as biochemical, opossum. An excerpt: Tissue samples of the opossum internal anal sphincter muscle (IAS), adjoining rectal tissue, liver, and brain were homogenized using an ULTRATURRAX™ tissue homogenizer (Tekamr, Cincinnati, Ohio) in a solution comprising 10 millimolar Tris-HCl, 150 millimolar KCl, and 25 millimolar MnCl2, at pH 7.4. The homogenates were dialyzed overnight against the same solution. Dialyzed homogenates were centrifuged to remove insoluble material and concentrated with Amicon CENTRICON™ 30 microconcentrators to yield stock protein preparations having protein concentrations of 2.4 milligrams per milliliter for IAS smooth muscle, 3.6 milligrams per milliliter for rectal smooth muscle, 3 milligrams per milliliter for brain, and 17.5 milligrams per milliliter for liver. Protein concentrations were estimated with the Pierce Coomassie Protein Reagent kit using bovine serum albumin as a standard.
Arginase activity in tissue homogenates was evaluated using the radioactive L-[guanidino^14C]arginine assay of Rüegg and Russell (1980, Anal. Biochem. 102:206-212). Assays were performed using a solution comprising 100 millimolar CHES-NaOH and 0.1 millimolar MnCl2 at pH 9.0. The reactions were initiated by addition of 5 microliters of tissue homogenate to 45 microliters of reaction mixture that contained the CHES buffer, the appropriate concentration of arginine (0.5 to 5 millimolar) and about 5.0×10^4 counts per minute of L-[guanidino-^14C]arginine. IAS, rectal muscle, and brain homogenates were incubated with the assay mixture at room temperature for one hour, and the liver sample was incubated for 5 minutes. The reactions were stopped by addition of 200 microliters of a stop solution containing 0.25 molar acetic acid, 7 molar urea, and 10 millimolar […] at pH 4.5. Arginase has essentially no activity at the low pH of the stop solution. [^14C] Urea was separated from non-reacted L-[guanidino-^14C]arginine by treatment with 200 μl of 1:1 v/v slurry of DOWEX™ 50W-X8 in water, and quantitated by adding 200 microliters of the supernatant from the DOWEX™ treatment to 3 milliliters of LIQUISCENT™ (National Diagnostics) for liquid scintillation counting in a Beckman LS 5000CE counter. The data were analyzed using double-reciprocal plots of the initial velocity measurements; standard errors were determined by regression analysis.
Assays in the presence of the inhibitors N^ω-hydroxy-L-arginine (1 to 100 micromolar) and ABHA (0.05 to 100 micromolar) were performed as described above. The amino acid D-ornithine served as a control in these experiments, since this amino acid, unlike L-omithine, is not an inhibitor of arginase.

Test [2] has as its system penile corpus cavernosum smooth muscle. Put plainly: organ bath, NANC nerve-mediated relaxation of penile corpus cavernosum tissue strips. More on the design: species or system rabbit. An excerpt: Penile cavernosal tissue strips were obtained from male New Zealand white rabbits (3.0-3.5 kilogram body weight) and mounted in organ bath preparations, as described (Kim et al., 1991, J. Clin. Invest. 88:112-118). Tissues strips at optimal isometric tension were contracted using 40 nanomolar endothelin-1 and subjected to electrical field stimulation (EFS), by means of two platinum plate electrodes positioned on either side of the tissue and a current amplifier in series with a square pulse stimulator. Each stimulation period lasted 20 seconds with trains of square waves having a pulse duration of 0.5 milliseconds and a potential difference of 10 volts. Frequency was varied from 1 to 10 Hertz. For all experiments, NANC responses were isolated in tissue strips by treatment with indomethacin to inhibit vasoactive prostanoid synthesis, 10 micromolar bretylium to inhibit adrenergic neurotransmission, and 1 micromolar atropine to block muscarinic acetylcholine receptors. All tissues were first subject to EFS in the absence of ABHA, and then stimulations were repeated in the presence of increasing concentrations (0.1 to 1.0 millimolar) ABHA following a 20 minute incubation period. […] Responses were further analyzed by determining the ratios of the responses in the presence and absence of ABHA treatment.

In test [3] the target is T1, rat liver arginase (Rattus norvegicus, UniProt P07824).
T1 sequence (P07824 1-323): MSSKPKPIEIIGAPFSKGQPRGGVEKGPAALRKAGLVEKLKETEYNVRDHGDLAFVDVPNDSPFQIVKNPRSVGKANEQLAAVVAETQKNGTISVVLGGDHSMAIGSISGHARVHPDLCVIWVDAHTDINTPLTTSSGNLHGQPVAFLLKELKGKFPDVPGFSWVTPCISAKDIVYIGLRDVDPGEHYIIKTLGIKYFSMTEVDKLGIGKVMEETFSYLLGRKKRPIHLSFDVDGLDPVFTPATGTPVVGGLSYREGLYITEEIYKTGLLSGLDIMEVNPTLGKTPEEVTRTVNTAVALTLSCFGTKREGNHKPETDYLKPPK
Put plainly: radioactive L-[guanidino-14C]arginine arginase assay (Example 3). More on the design: made in house. It counts as biochemical. Particulars: [14C-guanidino]-L-arginine assay, low inhibitor concentrations, assuming competitive inhibition; read-out: Ki (apparent). As to the method:
Assays were performed in 100 micromolar MnCl2, 100 millimolar CHES-NaOH (pH 9.0). The reactions were initiated by addition of 5 microliters of a circa 1 unit per milliliter enzyme solution to 45 microliters of reaction mixture containing CHES buffer, 1.4 millimolar L-arginine, about 5.0×10^4 counts per minute of L-[guanidino- ^14C]arginine, and variable concentrations of the appropriate inhibitor. After a 5-15 minute reaction time, 200 microliters of a stop solution containing 7 molar urea, 10 millimolar L-arginine, and 0.25 molar acetic acid (pH 4.5) was added to the reaction (arginase has essentially no activity under these conditions). [^14C]-Urea was separated from non-reacted L-[guanidino-^14 C]arginine by treatment with 200 microliters of a 1:1 (vol/vol) slurry of DOWEX™ 50 W-X8 in water, and quantitated by adding 200 microliters of the supernatant from the DOWEX™ treatment to 3 milliliters of LIQUISCINT™ (National Diagnostics) for liquid scintillation counting in a Beckman LS5000CE counter.

“Also recorded” adds a separate entry of the source.

Turning to `N[C@@H](CCCCB(O)O)C(=O)O` [compound 7, 2(S)-amino-6-boronohexanoic acid], the Ki in test [1] (arginine fixed at Km, assuming competitive inhibition, read-out: estimated Ki, liver arginase activity) is 0.19 µM; in test [3] it was 0.1 µM. Further, the “times more potent than L-HO-Arg, liver” value in test [1] (liver homogenate) amounted to 5 times. The “potency against liver arginase activity relative to non-hepatic tissues” value in test [1] (liver versus IAS, rectum, brain) is “more potent inhibitor of non-hepatic than hepatic arginase activities”. For the same molecule, the IC50 in test [1] (liver, read-out: IC50 for inhibition of arginase activity, liver homogenate) amounted to 0.44 µM. Besides, in test [2] (0.1 to 1.0 millimolar ABHA, 1 to 10 Hertz), the “enhancement of relaxation in response to EFS” value is on record as “significant enhancement; also recorded: significantly enhanced relaxation; also recorded: statistically significant”. Further, the “relaxation in the absence of electrical stimulation” value in test [2] (corpus cavernosum strips contracted with endothelin-1) was “moderate relaxation”.

In general, IC50 refers to the concentration at which inhibition is half-maximal.
